Results on two compounds are retold here after ChEMBL document CHEMBL5335806, “Cytotoxic leuconoxine-type diazaspiroindole alkaloids isolated from Cryptolepis dubia” (Bioorg Med Chem Lett, 2024).

Each structure is given as a SMILES string. pIC50: −log10 of the molar value. ≈ marks a conversion by molar mass, not a printed value. Where only a bound is given, the exact number is not on record here.

Assay [1] deals with HT-29. The assay is described as follows: Cytotoxicity against human HT-29 cells assessed as inhibition of cell viability incubated for 72 hrs. The format is functional, cell-based. Conditions: HT-29, 72 h.
The test system of assay [2] is MDA-MB-231. The assay is described as follows: Cytotoxicity against human MDA-MB-231 cells assessed as inhibition of cell viability incubated for 72 hrs. Conditions: MDA-MB-231, 72 h. It counts as functional, cell-based.
The subject of assay [3] is MDA-MB-435. The assay is described as follows: Cytotoxicity against human MDA-MB-435 cells assessed as inhibition of cell viability incubated for 72 hrs. To be noted: MDA-MB-435, 72 h. It counts as functional, cell-based.
Assay [4] concerns OVCAR-3. The experiment in a line: Cytotoxicity against human OVCAR-3 cells assessed as inhibition of cell viability incubated for 72 hrs. The format is functional, cell-based. To be noted: OVCAR-3, 72 h.
Assay [5] deals with Staphylococcus epidermidis. The assay is described as follows: Antibacterial activity against Staphylococcus epidermidis by a two-fold serial dilution method. The format is functional.
Assay [6] has as its system Micrococcus luteus. The assay is described as follows: Antibacterial activity against Micrococcus luteus by a two-fold serial dilution method. The format is functional.
The subject of assay [7] is Escherichia coli. The experiment in a line: Antibacterial activity against Escherichia coli TISTR 780 by a two-fold serial dilution method. It counts as functional.
Assay [8] relates to Salmonella typhimurium. The experiment in a line: Antibacterial activity against Salmonella typhimurium TISTR 291 by a two-fold serial dilution method. Conditions: Salmonella enterica. It counts as functional, Salmonella enterica subsp. enterica serovar Typhimurium.

One may read the pIC50 as −log10 of the IC50, conventionally taken in molar units. In the case of `CC[C@@]12CCCN3C(=O)C(Cl)=C4c5ccccc5N(C(=O)CC1)[C@]432`, the pIC50 in assay [1] is less than 5.00; in assay [2] it was less than 5.00; in assay [3], less than 5.00; in assay [4] it was 5.23.

The MIC is the smallest concentration in the dilution series that meets the test's criterion for growth inhibition. With `CC[C@@]12CCCN3C(=O)C=C4c5ccccc5N(C(=O)CC1)[C@]432`, the pIC50 in assay [1] was less than 5.00; in assay [2], less than 5.00; in assay [3] it was less than 5.00; in assay [4] it was 5.04. Further, the minimum inhibitory concentration (MIC) in assay [5], in assay [6], in assay [7] and in assay [8] was 64 µg/mL (≈ 208 µM) in each case.
